Measured values from US12336995B2, “Combination therapies” (Mirati Therapeutics, Inc., priority 2018, dated 2025).
Like-named read-outs stand apart in the source and are kept apart here.

Legend:
CR6258 Tumor = assay: In vivo PDX model, Compound 478 and Cetuximab (Table 5a); parameters: species or system nude/nude mice; conditions: for Average Tumor Volumes: CR6258, Cetuximab 0.25 mg/kg i.p. every third day, single or combined
Experimental: (§1) Immunocompromised nude/nude mice were inoculated in the right hind flank with cells or patient derived tumor samples harboring a KRas G12C mutation. […] The first group was administered vehicle only. […] The fourth group was administered the single agent dose of the KRas G12C inhibitor in combination with the single agent dose of the pan ErbB family inhibitor. […] Tumor volumes were measured using a caliper every two-three days and tumor volumes were calculated by the formula: 0.5×(Length×Width)^2.
(§2) In a related experiment, on Day 1, two sets of 20 nude/nude mice each were inoculated in the right hind limb with 5×10^6 CR6256 cells or CR2528 cells (PDX models). […] Tumor volumes were measured at pre-specified days set forth below.

[1] = system: CR2528 cells (PDX models); assay: In vivo PDX model, Compound 478 and Cetuximab (Table 5b); parameters: species or system nude/nude mice; conditions: for Average Tumor Volumes: CR2528, Cetuximab 0.25 mg/kg i.p. every third day, single or combined
Experimental: as §1, §2

KYSE-410 cells [2] = conditions: KYSE-410-implanted mice; Day 61 (Treatment Day 50); single agent 100 mg/kg p.o. daily; Table 6a
Experimental: as §1
(§3) Tumor volumes were measured at pre-specified days set forth below.

H2122 cells [3] = conditions: H2122-implanted mice; Day 46 (Treatment Day 35); single agent 100 mg/kg p.o. daily; Table 6b
Experimental: as §1, §3

LU6405 cells (PDX model) = assay: In vivo PDX model, Compound 478 and Afatinib (Table 4c); conditions: for Average Tumor Volumes: LU6405, Afatinib 12.5 mg/kg, single or combined
Experimental: as §1, §3

H2122 cells [4] = assay: In vivo tumor model, Compound 478 and Afatinib (Table 4a); conditions: for Average Tumor Volumes: H2122, Afatinib 12.5 mg/kg, single or combined
Experimental: as §1, §3

KYSE-410 cells [5] = assay: In vivo tumor model, Compound 478 and Afatinib (Table 4b); conditions: for Average Tumor Volumes: KYSE-410, Afatinib 12.5 mg/kg, single or combined
Experimental: as §1, §3

[6] = Day 11 post implant (treatment start), Compound 478 100 mg/kg p.o. daily
[7] = Day 11 post implant (treatment start), p.o. daily: Compound 478 100 mg/kg
[8] = Day 14 post implant, p.o. daily from Day 11: Compound 478 100 mg/kg
[9] = Day 18 post implant, p.o. daily from Day 11: Compound 478 100 mg/kg
[10] = Day 21 post implant, p.o. daily from Day 11: Compound 478 100 mg/kg
[11] = Day 25 post implant, p.o. daily from Day 11: Compound 478 100 mg/kg
[12] = Day 28 post implant, p.o. daily from Day 11: Compound 478 100 mg/kg
[13] = Day 32 post implant, p.o. daily from Day 11: Compound 478 100 mg/kg
[14] = Day 34 post implant, p.o. daily from Day 11: Compound 478 100 mg/kg

## C=C(F)C(=O)N1CCN(c2nc(OC[C@@H]3CCCN3C)nc3c2CCN(c2cccc4cccc(Cl)c24)C3)C[C@@H]1CC#N [Compound 478]
CR6258 Tumor; CR6258-implanted mice, Day 37 (Treatment Day 27), Compound 478 100 mg/kg p.o. daily alone or with cetuximab 0.25 mg/kg i.p. every three days
  tumor regression: 71%
CR6258 Tumor; [6]
  Average Tumor Volumes: 190.54 mm^3
CR6258 Tumor; Day 18 post implant, from Day 11: Compound 478 100 mg/kg p.o. daily
  Average Tumor Volumes: 256.91 mm^3
CR6258 Tumor; Day 25 post implant, from Day 11: Compound 478 100 mg/kg p.o. daily
  Average Tumor Volumes: 201.00 mm^3
CR6258 Tumor; Day 28 post implant, from Day 11: Compound 478 100 mg/kg p.o. daily
  Average Tumor Volumes: 128.77 mm^3
CR6258 Tumor; Day 32 post implant, from Day 11: Compound 478 100 mg/kg p.o. daily
  Average Tumor Volumes: 77.44 mm^3
CR6258 Tumor; Day 35 post implant, from Day 11: Compound 478 100 mg/kg p.o. daily
  Average Tumor Volumes: 56.15 mm^3
CR6258 Tumor; Day 39 post implant, from Day 11: Compound 478 100 mg/kg p.o. daily
  Average Tumor Volumes: 44.24 mm^3
CR6258 Tumor; Day 42 post implant, from Day 11: Compound 478 100 mg/kg p.o. daily
  Average Tumor Volumes: 41.80 mm^3
CR6258 Tumor; Day 46 post implant, from Day 11: Compound 478 100 mg/kg p.o. daily
  Average Tumor Volumes: 29.92 mm^3
CR6258 Tumor; Day 49 post implant, from Day 11: Compound 478 100 mg/kg p.o. daily
  Average Tumor Volumes: 19.79 mm^3
[1]; CR2528-implanted mice, Day 34 (Treatment Day 24), 100 mg/kg p.o. daily
  single-agent anti-tumor activity: no single-agent anti-tumor activity
[1]; [6]
  Average Tumor Volumes: 265.11 mm^3
[1]; Day 14 post implant, from Day 11: Compound 478 100 mg/kg p.o. daily
  Average Tumor Volumes: 350.48 mm^3
[1]; Day 17 post implant, from Day 11: Compound 478 100 mg/kg p.o. daily
  Average Tumor Volumes: 434.64 mm^3
[1]; Day 20 post implant, from Day 11: Compound 478 100 mg/kg p.o. daily
  Average Tumor Volumes: 656.73 mm^3
[1]; Day 24 post implant, from Day 11: Compound 478 100 mg/kg p.o. daily
  Average Tumor Volumes: 950.91 mm^3
[1]; Day 27 post implant, from Day 11: Compound 478 100 mg/kg p.o. daily
  Average Tumor Volumes: 1252.80 mm^3
[1]; Day 31 post implant, from Day 11: Compound 478 100 mg/kg p.o. daily
  Average Tumor Volumes: 1713.13 mm^3
[1]; Day 34 post implant, from Day 11: Compound 478 100 mg/kg p.o. daily
  Average Tumor Volumes: 2757.63 mm^3
KYSE-410 cells [2]
  tumor growth inhibition: 71%
H2122 cells [3]
  tumor regression: 3%
LU6405 cells (PDX model); [7]
  Average Tumor Volumes: 256.06 mm^3
LU6405 cells (PDX model); [8]
  Average Tumor Volumes: 308.98 mm^3
LU6405 cells (PDX model); [9]
  Average Tumor Volumes: 324.46 mm^3
LU6405 cells (PDX model); [10]
  Average Tumor Volumes: 329.09 mm^3
LU6405 cells (PDX model); [11]
  Average Tumor Volumes: 310.21 mm^3
LU6405 cells (PDX model); [12]
  Average Tumor Volumes: 290.88 mm^3
LU6405 cells (PDX model); [13]
  Average Tumor Volumes: 257.34 mm^3
LU6405 cells (PDX model); [14]
  Average Tumor Volumes: 249.19 mm^3
LU6405 cells (PDX model); LU6405-implanted mice, Day 34 (Treatment Day 24), single agent 100 mg/kg p.o. daily
  tumor growth inhibition: 96%
H2122 cells [4]; [7]
  Average Tumor Volumes: 325.05 mm^3
H2122 cells [4]; Day 13 post implant, p.o. daily from Day 11: Compound 478 100 mg/kg
  Average Tumor Volumes: 339.80 mm^3
H2122 cells [4]; Day 15 post implant, p.o. daily from Day 11: Compound 478 100 mg/kg
  Average Tumor Volumes: 337.58 mm^3
H2122 cells [4]; [9]
  Average Tumor Volumes: 381.78 mm^3
H2122 cells [4]; Day 20 post implant, p.o. daily from Day 11: Compound 478 100 mg/kg
  Average Tumor Volumes: 462.40 mm^3
H2122 cells [4]; Day 22 post implant, p.o. daily from Day 11: Compound 478 100 mg/kg
  Average Tumor Volumes: 479.48 mm^3
H2122 cells [4]; [11]
  Average Tumor Volumes: 492.76 mm^3
H2122 cells [4]; Day 27 post implant, p.o. daily from Day 11: Compound 478 100 mg/kg
  Average Tumor Volumes: 541.06 mm^3
H2122 cells [4]; Day 29 post implant, p.o. daily from Day 11: Compound 478 100 mg/kg
  Average Tumor Volumes: 537.14 mm^3
H2122 cells [4]; [13]
  Average Tumor Volumes: 547.06 mm^3
H2122 cells [4]; [14]
  Average Tumor Volumes: 546.96 mm^3
H2122 cells [4]; H2122 tumor bearing mice, Day 22 (Treatment Day 10), single agent, Compound 478 100 mg/kg, afatinib 12.5 mg/kg p.o. daily
  tumor growth inhibition: 85%
KYSE-410 cells [5]; [7]
  Average Tumor Volumes: 307.30 mm^3
KYSE-410 cells [5]; [8]
  Average Tumor Volumes: 274.64 mm^3
KYSE-410 cells [5]; Day 16 post implant, p.o. daily from Day 11: Compound 478 100 mg/kg
  Average Tumor Volumes: 311.34 mm^3
KYSE-410 cells [5]; [9]
  Average Tumor Volumes: 297.62 mm^3
KYSE-410 cells [5]; [10]
  Average Tumor Volumes: 338.18 mm^3
KYSE-410 cells [5]; Day 23 post implant, p.o. daily from Day 11: Compound 478 100 mg/kg
  Average Tumor Volumes: 320.42 mm^3
KYSE-410 cells [5]; [11]
  Average Tumor Volumes: 358.68 mm^3
KYSE-410 cells [5]; [12]
  Average Tumor Volumes: 459.20 mm^3
KYSE-410 cells [5]; Day 30 post implant, p.o. daily from Day 11: Compound 478 100 mg/kg
  Average Tumor Volumes: 441.60 mm^3
KYSE-410 cells [5]; [13]
  Average Tumor Volumes: 480.62 mm^3
KYSE-410 cells [5]; Day 37 post implant, p.o. daily from Day 11: Compound 478 100 mg/kg
  Average Tumor Volumes: 525.86 mm^3
KYSE-410 cells [5]; KYSE-410 tumor bearing mice, Day 37 (Treatment Day 27), single agent 100 mg/kg p.o. daily
  tumor growth inhibition: 64%
